Measured values: ChEMBL document CHEMBL4017496 (J Med Chem, 2017)
Calls of active or inactive are those of the source. The rule behind the calls is not given here.

Tests used:
Mesenchymal stem cell [1] = assay: Inhibition of adipogenesis in human bone marrow-derived mesenchymal stem cells assessed as decrease in number and size of lipid droplets at 1 mM after 7 days in presence of IDX by oil red O staining based inverted microscopic method; format: functional
Mesenchymal stem cell [2] = assay: Inhibition of adipogenesis in human bone marrow-derived mesenchymal stem cells at 1 mM after 7 days in presence of IDX; format: functional, cell-based
[3] = molecular target: T1, Oxysterols receptor LXR-beta (Homo sapiens) (UniProt P55055); assay: Binding affinity to human LXRbeta at 4 uM by TR-FRET assay
T1 sequence (whole entry): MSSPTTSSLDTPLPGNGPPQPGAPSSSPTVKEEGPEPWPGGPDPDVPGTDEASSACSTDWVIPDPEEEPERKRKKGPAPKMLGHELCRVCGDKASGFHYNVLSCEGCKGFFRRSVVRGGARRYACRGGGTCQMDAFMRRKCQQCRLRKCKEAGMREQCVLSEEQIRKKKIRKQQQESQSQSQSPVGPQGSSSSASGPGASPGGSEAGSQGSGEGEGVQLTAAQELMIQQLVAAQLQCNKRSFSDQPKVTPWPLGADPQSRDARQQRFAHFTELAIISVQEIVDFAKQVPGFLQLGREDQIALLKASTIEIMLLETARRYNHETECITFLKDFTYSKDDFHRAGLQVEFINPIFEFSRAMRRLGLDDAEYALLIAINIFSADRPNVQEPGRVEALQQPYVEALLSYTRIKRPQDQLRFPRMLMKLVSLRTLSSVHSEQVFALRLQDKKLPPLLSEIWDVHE

[4] = molecular target: T2, Glucocorticoid receptor (Homo sapiens) (UniProt P04150); assay: Displacement of Fluormone-GS1 from human GST-tagged glucocorticoid receptor LBD at 4 uM by TR-FRET assay
T2 sequence (whole entry): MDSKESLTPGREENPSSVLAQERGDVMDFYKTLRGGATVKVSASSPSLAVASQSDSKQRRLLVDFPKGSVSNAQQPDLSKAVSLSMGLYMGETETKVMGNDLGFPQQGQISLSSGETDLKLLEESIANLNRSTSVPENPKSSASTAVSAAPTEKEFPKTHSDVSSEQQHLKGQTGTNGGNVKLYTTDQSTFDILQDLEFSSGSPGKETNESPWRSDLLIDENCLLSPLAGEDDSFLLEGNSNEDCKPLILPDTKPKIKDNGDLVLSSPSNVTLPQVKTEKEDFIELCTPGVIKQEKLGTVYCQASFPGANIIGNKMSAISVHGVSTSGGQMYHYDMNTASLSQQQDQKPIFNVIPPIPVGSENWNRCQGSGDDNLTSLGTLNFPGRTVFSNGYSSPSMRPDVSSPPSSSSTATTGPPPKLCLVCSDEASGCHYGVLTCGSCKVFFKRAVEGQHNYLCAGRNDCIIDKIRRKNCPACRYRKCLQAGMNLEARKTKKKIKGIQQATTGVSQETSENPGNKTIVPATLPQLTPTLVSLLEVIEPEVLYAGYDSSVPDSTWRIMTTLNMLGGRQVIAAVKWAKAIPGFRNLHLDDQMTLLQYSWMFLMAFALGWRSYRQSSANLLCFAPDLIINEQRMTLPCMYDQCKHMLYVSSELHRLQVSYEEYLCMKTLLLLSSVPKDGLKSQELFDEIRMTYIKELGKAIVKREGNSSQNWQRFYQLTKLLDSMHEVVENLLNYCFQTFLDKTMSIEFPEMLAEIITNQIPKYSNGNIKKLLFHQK

[5] = molecular target: T3, Oxysterols receptor LXR-alpha (Homo sapiens) (UniProt Q13133); assay: Binding affinity to human LXRalpha at 4 uM by TR-FRET assay
T3 sequence (whole entry): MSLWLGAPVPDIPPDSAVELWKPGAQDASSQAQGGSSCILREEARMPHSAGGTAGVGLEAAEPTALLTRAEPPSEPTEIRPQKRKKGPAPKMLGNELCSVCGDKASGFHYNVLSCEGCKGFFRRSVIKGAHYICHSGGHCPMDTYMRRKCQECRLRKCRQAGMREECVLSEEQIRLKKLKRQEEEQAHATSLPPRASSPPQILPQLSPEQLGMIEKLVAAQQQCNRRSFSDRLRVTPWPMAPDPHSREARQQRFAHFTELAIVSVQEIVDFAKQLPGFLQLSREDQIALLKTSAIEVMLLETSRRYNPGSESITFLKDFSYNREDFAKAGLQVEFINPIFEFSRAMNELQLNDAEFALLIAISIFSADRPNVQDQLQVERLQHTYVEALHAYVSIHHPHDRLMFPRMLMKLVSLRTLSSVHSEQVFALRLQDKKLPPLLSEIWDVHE

[6] = molecular target: T4, Peroxisome proliferator-activated receptor delta (Homo sapiens) (UniProt Q03181); assay: Displacement of Fluormone-Pan-PPAR Green from human GST-tagged PPARdelta LBD at 4 uM by TR-FRET assay relative to control
T4 sequence (whole entry): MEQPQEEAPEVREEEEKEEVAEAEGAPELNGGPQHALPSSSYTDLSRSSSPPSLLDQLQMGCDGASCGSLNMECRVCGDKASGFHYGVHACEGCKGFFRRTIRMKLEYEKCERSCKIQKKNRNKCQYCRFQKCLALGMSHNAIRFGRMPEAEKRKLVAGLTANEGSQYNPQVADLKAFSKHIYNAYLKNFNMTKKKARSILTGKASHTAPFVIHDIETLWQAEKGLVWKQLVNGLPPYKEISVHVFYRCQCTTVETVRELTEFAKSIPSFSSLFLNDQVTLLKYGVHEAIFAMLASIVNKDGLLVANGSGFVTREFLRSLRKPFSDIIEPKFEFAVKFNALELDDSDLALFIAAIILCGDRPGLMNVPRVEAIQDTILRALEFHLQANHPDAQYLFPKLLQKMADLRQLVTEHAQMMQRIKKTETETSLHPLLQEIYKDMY

[7] = Induction of adipogenesis in human bone marrow-derived mesenchymal stem cells assessed as adiponectin level at 20 uM measured on day 7 after 48 hrs by ELISA; format: functional, Mesenchymal stem cell
[8] = molecular target: T5, Peroxisome proliferator-activated receptor gamma (Homo sapiens) (UniProt P37231); assay: (§1) Displacement of Fluormone-Pan-PPAR Green from human GST-tagged PPARgamma LBD by TR-FRET assay
T5 sequence (whole entry): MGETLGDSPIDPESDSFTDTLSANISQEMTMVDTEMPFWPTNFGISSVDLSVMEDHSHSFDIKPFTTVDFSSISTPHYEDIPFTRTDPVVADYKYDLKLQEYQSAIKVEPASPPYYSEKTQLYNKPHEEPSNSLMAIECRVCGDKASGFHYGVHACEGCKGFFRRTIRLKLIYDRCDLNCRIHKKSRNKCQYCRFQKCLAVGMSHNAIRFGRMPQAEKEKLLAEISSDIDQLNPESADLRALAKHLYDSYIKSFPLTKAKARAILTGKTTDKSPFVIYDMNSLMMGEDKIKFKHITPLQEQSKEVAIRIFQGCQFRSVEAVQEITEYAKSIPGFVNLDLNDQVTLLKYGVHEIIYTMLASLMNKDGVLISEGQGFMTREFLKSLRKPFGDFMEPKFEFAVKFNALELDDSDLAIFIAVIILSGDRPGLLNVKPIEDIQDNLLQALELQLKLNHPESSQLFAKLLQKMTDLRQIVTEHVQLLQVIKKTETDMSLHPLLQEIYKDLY

[9] = molecular target: T6, Peroxisome proliferator-activated receptor gamma (Homo sapiens, UniProt P37231); assay: as §1
T6 sequence (P37231 whole entry): T5 sequence (whole entry)

[10] = Induction of adipogenesis in human bone marrow-derived mesenchymal stem cells assessed as adiponectin level at 4 uM measured on day 7 after 48 hrs by ELISA; format: functional, Mesenchymal stem cell
[11] = molecular target: T7, Peroxisome proliferator-activated receptor delta (Homo sapiens, UniProt Q03181); assay: Displacement of Fluormone-Pan-PPAR Green from human GST-tagged PPARdelta LBD by TR-FRET assay
T7 sequence (Q03181 whole entry): T4 sequence (whole entry)

[12] = molecular target: T5, Peroxisome proliferator-activated receptor gamma (Homo sapiens); assay: Displacement of Fluormone-Pan-PPAR Green from human GST-tagged PPARgamma LBD at 4 uM by TR-FRET assay relative to control
[13] = molecular target: T8, Peroxisome proliferator-activated receptor alpha (Homo sapiens) (UniProt Q07869); assay: Displacement of Fluormone-Pan-PPAR Green from human GST-tagged PPARalpha LBD at 20 uM by TR-FRET assay relative to control
T8 sequence (whole entry): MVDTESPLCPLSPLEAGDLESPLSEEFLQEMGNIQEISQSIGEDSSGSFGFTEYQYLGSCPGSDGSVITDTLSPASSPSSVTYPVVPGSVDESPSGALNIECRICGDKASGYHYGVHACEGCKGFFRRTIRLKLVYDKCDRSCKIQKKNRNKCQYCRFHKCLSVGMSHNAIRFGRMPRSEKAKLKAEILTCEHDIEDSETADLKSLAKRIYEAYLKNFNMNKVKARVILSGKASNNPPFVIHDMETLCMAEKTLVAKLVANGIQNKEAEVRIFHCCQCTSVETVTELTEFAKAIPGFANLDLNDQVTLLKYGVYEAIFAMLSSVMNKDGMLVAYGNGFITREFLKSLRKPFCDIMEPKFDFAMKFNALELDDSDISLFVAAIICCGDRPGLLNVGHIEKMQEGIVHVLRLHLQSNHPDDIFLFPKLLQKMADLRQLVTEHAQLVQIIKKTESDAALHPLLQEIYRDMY

[14] = molecular target: T8, Peroxisome proliferator-activated receptor alpha (Homo sapiens); assay: Displacement of Fluormone-Pan-PPAR Green from human GST-tagged PPARalpha LBD at 4 uM by TR-FRET assay relative to control

**Q.** For Cn1c(=O)c2c(ncn2C)n(C)c1=O, which inhibition (Mesenchymal stem cell [1]) is on record?
**A.** Active

**Q.** What about the inhibition (Mesenchymal stem cell [2]) of the same compound?
**A.** Active

**Q.** Which Activity [3] does the source give for CNC(=O)[C@H]1O[C@@H](n2cnc3c(NCc4cccc(I)c4)nc(Cl)nc32)[C@H](O)[C@@H]1O [NAMODENOSON] here?
**A.** inactive

**Q.** And the inhibition [4]?
**A.** inactive

**Q.** What about the Activity [5] of the same compound?
**A.** inactive

**Q.** And the inhibition [6]?
**A.** 75%

**Q.** What about the Activity [7] of the same compound?
**A.** 603 pg/mL

**Q.** What about the inhibition [8] of the same compound?
**A.** Dose-dependent effect

**Q.** And the Ki [9]?
**A.** 2180 nM

**Q.** And the Activity [10]?
**A.** 221 pg/mL

**Q.** And the Ki [11]?
**A.** 430 nM

**Q.** What about the inhibition [12] of the same compound?
**A.** 59%

**Q.** And the inhibition [13]?
**A.** 46.5%

**Q.** What about the inhibition [14] of the same compound?
**A.** inactive
